Test system: 922993-354-T-J3-PDC complex spheroid viability
Assay: Anticancer human tumor 922993-354-T-J3-PDC patient-derived endometrial carcinoma cell line growth inhibition [POLQ]
Settings: for IC50: curve of first compound; for viability, T/C: stronger effect = lower value
How it was run: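 Complex spheroid viability model combining PDC tumour cells with endothelial (HUVEC) and MSC stromal cells. Novobiocin, ART-558 or RP6685 were tested singly and in combination with standard and investigational anticancer drugs. Each was titrated in half-log steps from near clinical Cmax, or from 10 microM where Cmax was unknown.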

[1] = second compound 0.0316 µM, first compound 0.0316 µM
[2] = second compound 0.0316 µM, first compound 0.1 µM
[3] = second compound 0.0316 µM, first compound 0.316 µM
[4] = second compound 0.0316 µM, first compound 1 µM
[5] = second compound 0.1 µM, first compound 0.0316 µM
[6] = second compound 0.1 µM, first compound 0.1 µM
[7] = second compound 0.1 µM, first compound 0.316 µM
[8] = second compound 0.1 µM, first compound 1 µM
[9] = second compound 0.316 µM, first compound 0.0316 µM
[10] = second compound 0.316 µM, first compound 0.1 µM
[11] = second compound 0.316 µM, first compound 0.316 µM
[12] = second compound 0.316 µM, first compound 1 µM
[13] = second compound 1 µM, first compound 0.0316 µM
[14] = second compound 1 µM, first compound 0.1 µM
[15] = second compound 1 µM, first compound 0.316 µM
[16] = second compound 1 µM, first compound 1 µM
[17] = second compound 3.16 µM, first compound 0.0316 µM
[18] = second compound 3.16 µM, first compound 0.1 µM
[19] = second compound 3.16 µM, first compound 0.316 µM
[20] = second compound 3.16 µM, first compound 1 µM
[21] = second compound 10 µM, first compound 0.0316 µM
[22] = second compound 10 µM, first compound 0.1 µM
[23] = second compound 10 µM, first compound 0.316 µM
[24] = second compound 10 µM, first compound 1 µM
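Note: spheroids exposed to the agents for one week.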
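Throughout, for viability, T/C: 100% = DMSO vehicle control wells.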

## CC(C)n1c(=O)n(C)c2cnc3cc(F)c(-c4ccc(OCCCN5CCCCC5)nc4)cc3c21 + Cc1cccc(N(C)C(=O)C2C(O)CCN2c2nc(C)cc(C(F)(F)F)c2C#N)c1
Second compound 0.0316 µM
  IC50: > 10000 nM
Second compound 0.1 µM
  IC50: > 10000 nM
Second compound 0.316 µM
  IC50: > 10000 nM
Second compound 1 µM
  IC50: > 10000 nM
Second compound 3.16 µM
  IC50: > 10000 nM
Second compound 10 µM
  IC50: > 10000 nM
[1]
  viability, T/C: 101%
[2]
  viability, T/C: 99.8%
[3]
  viability, T/C: 99.9%
[4]
  viability, T/C: 106%
Second compound 0.0316 µM, first compound 3.16 µM
  viability, T/C: 97.4%
Second compound 0.0316 µM, first compound 10 µM
  viability, T/C: 66.9%
[5]
  viability, T/C: 95.3%
[6]
  viability, T/C: 108%
[7]
  viability, T/C: 108%
[8]
  viability, T/C: 97.9%
Second compound 0.1 µM, first compound 3.16 µM
  viability, T/C: 81.3%
Second compound 0.1 µM, first compound 10 µM
  viability, T/C: 74.4%
[9]
  viability, T/C: 114%
[10]
  viability, T/C: 109%
[11]
  viability, T/C: 104%
[12]
  viability, T/C: 102%
Second compound 0.316 µM, first compound 3.16 µM
  viability, T/C: 88.2%
Second compound 0.316 µM, first compound 10 µM
  viability, T/C: 77%
[13]
  viability, T/C: 114%
[14]
  viability, T/C: 112%
[15]
  viability, T/C: 110%
[16]
  viability, T/C: 99.7%
Second compound 1 µM, first compound 3.16 µM
  viability, T/C: 90.7%
Second compound 1 µM, first compound 10 µM
  viability, T/C: 68.9%
[17]
  viability, T/C: 100%
[18]
  viability, T/C: 109%
[19]
  viability, T/C: 102%
[20]
  viability, T/C: 90.8%
Second compound 3.16 µM, first compound 3.16 µM
  viability, T/C: 95.5%
Second compound 3.16 µM, first compound 10 µM
  viability, T/C: 80.3%
[21]
  viability, T/C: 101%
[22]
  viability, T/C: 104%
[23]
  viability, T/C: 107%
[24]
  viability, T/C: 92.4%
Second compound 10 µM, first compound 3.16 µM
  viability, T/C: 92.3%
Second compound 10 µM, first compound 10 µM
  viability, T/C: 70.5%

## CCc1c2c(nc3ccc(O)cc13)-c1cc3c(c(=O)n1C2)COC(=O)[C@]3(O)CC + COC1C(OC(N)=O)C(O)C(Oc2ccc3c(O)c(NC(=O)c4ccc(O)c(CC=C(C)C)c4)c(=O)oc3c2C)OC1(C)C
Second compound 0.0316 µM
  IC50: 6.29 nM
Second compound 0.1 µM
  IC50: 8.2 nM
Second compound 0.316 µM
  IC50: 8.19 nM
Second compound 1 µM
  IC50: 7.48 nM
Second compound 3.16 µM
  IC50: 7.04 nM
Second compound 10 µM
  IC50: 7.52 nM
Second compound 0.0316 µM, first compound 0.00316 µM
  viability, T/C: 81.4%
Second compound 0.0316 µM, first compound 0.01 µM
  viability, T/C: 28.9%
[1]
  viability, T/C: 14.3%
[2]
  viability, T/C: 11.3%
[3]
  viability, T/C: 13.4%
[4]
  viability, T/C: 15.7%
Second compound 0.1 µM, first compound 0.00316 µM
  viability, T/C: 85.7%
Second compound 0.1 µM, first compound 0.01 µM
  viability, T/C: 42.6%
[5]
  viability, T/C: 14.8%
[6]
  viability, T/C: 12.7%
[7]
  viability, T/C: 12.1%
[8]
  viability, T/C: 17.8%
Second compound 0.316 µM, first compound 0.00316 µM
  viability, T/C: 85.5%
Second compound 0.316 µM, first compound 0.01 µM
  viability, T/C: 42.5%
[9]
  viability, T/C: 12%
[10]
  viability, T/C: 11.8%
[11]
  viability, T/C: 11.8%
[12]
  viability, T/C: 19.4%
Second compound 1 µM, first compound 0.00316 µM
  viability, T/C: 85.6%
Second compound 1 µM, first compound 0.01 µM
  viability, T/C: 37.9%
[13]
  viability, T/C: 11.6%
[14]
  viability, T/C: 9.81%
[15]
  viability, T/C: 12.3%
[16]
  viability, T/C: 16.5%
Second compound 3.16 µM, first compound 0.00316 µM
  viability, T/C: 76.3%
Second compound 3.16 µM, first compound 0.01 µM
  viability, T/C: 38.5%
[17]
  viability, T/C: 15.2%
[18]
  viability, T/C: 11.2%
[19]
  viability, T/C: 14.2%
[20]
  viability, T/C: 19.2%
Second compound 10 µM, first compound 0.00316 µM
  viability, T/C: 83.8%
Second compound 10 µM, first compound 0.01 µM
  viability, T/C: 38.8%
[21]
  viability, T/C: 10%
[22]
  viability, T/C: 10.3%
[23]
  viability, T/C: 13.1%
[24]
  viability, T/C: 17%

Source: PubChem BioAssay AID1963830 (Molecular Pharmacology Branch, DTP, NCI, 2024)
